In PMC8550792, “Evolution of kinase polypharmacology across HSP90 drug discovery” (Cell Chemical Biology, 2021):
Like-named read-outs stand apart in the source and are kept apart here.

Legend:
Assay in all cases: biochemical
Type in all cases: biochemical
382 unique human kinases [1] = molecular target: T1, 382 unique human kinases (Homo sapiens, UniProt P11802); conditions: CDK4/cyclin D1; 10 uM; read-out: % Enzyme Activity (relative to DMSO controls)
T1 construct: purchased Reaction Biology (HotSpot contract assay)

382 unique human kinases [2] = molecular target: T2, 382 unique human kinases (Homo sapiens, UniProt P22694); conditions: kinase PKAcb; compound 10 uM; read-out: % Enzyme Activity (relative to DMSO controls)
T2 construct: purchased Reaction Biology (HotSpot contract assay)

382 unique human kinases [3] = molecular target: T3, 382 unique human kinases (Homo sapiens, UniProt P24941); conditions: read-out: % Enzyme Activity (relative to DMSO controls)
T3 construct: purchased Reaction Biology (HotSpot contract assay)

382 unique human kinases [4] = molecular target: T4, 382 unique human kinases (Homo sapiens, UniProt P50750); conditions: read-out: % Enzyme Activity (relative to DMSO controls)
T4 construct: purchased Reaction Biology (HotSpot contract assay)

382 unique human kinases [5] = molecular target: T5, 382 unique human kinases (Homo sapiens, UniProt Q00534); conditions: kinase CDK6/cyclin D1; compound 10 uM; read-out: % Enzyme Activity (relative to DMSO controls)
T5 construct: purchased Reaction Biology (HotSpot contract assay)

382 unique human kinases [6] = molecular target: T6, 382 unique human kinases (Homo sapiens, UniProt Q9BXA6); conditions: kinase SSTK/TSSK6; compound 10 uM; read-out: % Enzyme Activity (relative to DMSO controls)
T6 construct: purchased Reaction Biology (HotSpot contract assay)
T6 sequence (Q9BXA6 whole entry): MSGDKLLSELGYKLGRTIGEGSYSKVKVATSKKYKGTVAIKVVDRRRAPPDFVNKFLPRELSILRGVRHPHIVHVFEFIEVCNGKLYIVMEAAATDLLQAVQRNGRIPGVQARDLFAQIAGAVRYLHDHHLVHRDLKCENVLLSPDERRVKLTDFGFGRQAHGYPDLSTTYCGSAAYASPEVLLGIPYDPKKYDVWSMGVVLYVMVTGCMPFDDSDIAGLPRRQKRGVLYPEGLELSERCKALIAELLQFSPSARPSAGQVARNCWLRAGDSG

T4 sequence (P50750 whole entry): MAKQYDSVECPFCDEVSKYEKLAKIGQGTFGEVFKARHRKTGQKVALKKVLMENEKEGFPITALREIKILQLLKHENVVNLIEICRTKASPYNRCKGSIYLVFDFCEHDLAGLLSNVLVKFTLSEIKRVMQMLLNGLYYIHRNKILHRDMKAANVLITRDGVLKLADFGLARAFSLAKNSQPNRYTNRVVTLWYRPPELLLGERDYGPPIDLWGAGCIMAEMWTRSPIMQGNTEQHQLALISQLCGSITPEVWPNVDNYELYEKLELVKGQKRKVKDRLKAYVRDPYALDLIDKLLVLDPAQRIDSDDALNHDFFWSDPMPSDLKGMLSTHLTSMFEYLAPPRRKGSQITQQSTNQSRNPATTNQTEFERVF
T1 sequence (P11802 whole entry): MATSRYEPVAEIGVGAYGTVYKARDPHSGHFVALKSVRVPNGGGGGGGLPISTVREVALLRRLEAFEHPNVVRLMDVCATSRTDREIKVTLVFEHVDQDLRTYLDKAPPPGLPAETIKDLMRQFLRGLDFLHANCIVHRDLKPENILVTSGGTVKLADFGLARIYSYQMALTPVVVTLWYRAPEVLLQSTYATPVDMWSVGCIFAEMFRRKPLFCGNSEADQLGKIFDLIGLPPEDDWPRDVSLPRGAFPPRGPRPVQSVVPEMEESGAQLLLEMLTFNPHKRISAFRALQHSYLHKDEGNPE
T5 sequence (Q00534 whole entry): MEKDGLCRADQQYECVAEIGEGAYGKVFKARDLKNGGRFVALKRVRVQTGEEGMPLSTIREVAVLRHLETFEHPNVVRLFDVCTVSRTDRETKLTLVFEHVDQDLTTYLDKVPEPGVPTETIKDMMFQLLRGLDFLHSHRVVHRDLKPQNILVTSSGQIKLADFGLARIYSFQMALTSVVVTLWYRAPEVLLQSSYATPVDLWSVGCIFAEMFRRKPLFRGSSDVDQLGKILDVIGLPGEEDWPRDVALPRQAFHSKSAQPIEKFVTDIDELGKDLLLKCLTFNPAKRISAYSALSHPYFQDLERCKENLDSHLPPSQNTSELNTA

## CC(C)c1cc(-c2n[nH]c(=O)n2-c2ccc3c(ccn3C)c2)c(O)cc1O [Ganetespib (STA9090)]
382 unique human kinases [1]
  remaining activity at 10 µM: 65.6%
382 unique human kinases [2]
  remaining activity at 10 µM: 96.3%
382 unique human kinases [3]; CDK2/cyclin A, 10 uM
  remaining activity at 10 µM: 74.3%
382 unique human kinases [3]; kinase CDK2/cyclin O, compound 10 uM
  remaining activity at 10 µM: 92.8%
382 unique human kinases [4]; CDK9/cyclin T2, 10 uM
  remaining activity at 10 µM: 69.9%
382 unique human kinases [4]; kinase CDK9/cyclin K, compound 10 uM
  remaining activity at 10 µM: 87%
382 unique human kinases [5]
  remaining activity at 10 µM: 85%
382 unique human kinases [6]
  remaining activity at 10 µM: 86.5%
